Several values for one entry are separate records, joined by “and”; a condition that tells them apart may be missing. Identical values can stand only once.
Assays:
Raji = assay: cells; settings: Homo sapiens, 96 h
Carbonic anhydrase 2 [1] = biological target: T1, Carbonic anhydrase 2 (Homo sapiens, UniProt P00918)
[2] = biological target: T2, Sodium/hydrogen exchanger 1 (Homo sapiens, UniProt P19634); format: cell-based, Platelet
Carbonic anhydrase 2 [3] = biological target: T1, Carbonic anhydrase 2; remark: listed apart in the source
[4] = biological target: T2, Sodium/hydrogen exchanger 1
[5] = biological target: T3, Monocarboxylate transporter 4 (Homo sapiens, UniProt O15427)
T3 sequence (O15427 whole entry): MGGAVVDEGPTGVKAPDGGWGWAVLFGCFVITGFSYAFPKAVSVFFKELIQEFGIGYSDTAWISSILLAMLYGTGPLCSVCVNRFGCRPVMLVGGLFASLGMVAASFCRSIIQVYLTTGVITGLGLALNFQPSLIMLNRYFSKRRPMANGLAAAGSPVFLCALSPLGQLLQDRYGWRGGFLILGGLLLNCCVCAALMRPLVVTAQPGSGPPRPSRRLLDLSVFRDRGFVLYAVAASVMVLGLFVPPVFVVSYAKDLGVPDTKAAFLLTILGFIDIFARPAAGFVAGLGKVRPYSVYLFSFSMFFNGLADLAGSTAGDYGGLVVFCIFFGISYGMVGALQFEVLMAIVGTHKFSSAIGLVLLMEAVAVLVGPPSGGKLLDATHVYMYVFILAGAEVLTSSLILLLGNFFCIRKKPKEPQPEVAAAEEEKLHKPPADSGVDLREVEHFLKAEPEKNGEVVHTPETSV

[6] = biological target: T4, Monocarboxylate transporter 1 (Homo sapiens, UniProt P53985)
T4 sequence (P53985 whole entry): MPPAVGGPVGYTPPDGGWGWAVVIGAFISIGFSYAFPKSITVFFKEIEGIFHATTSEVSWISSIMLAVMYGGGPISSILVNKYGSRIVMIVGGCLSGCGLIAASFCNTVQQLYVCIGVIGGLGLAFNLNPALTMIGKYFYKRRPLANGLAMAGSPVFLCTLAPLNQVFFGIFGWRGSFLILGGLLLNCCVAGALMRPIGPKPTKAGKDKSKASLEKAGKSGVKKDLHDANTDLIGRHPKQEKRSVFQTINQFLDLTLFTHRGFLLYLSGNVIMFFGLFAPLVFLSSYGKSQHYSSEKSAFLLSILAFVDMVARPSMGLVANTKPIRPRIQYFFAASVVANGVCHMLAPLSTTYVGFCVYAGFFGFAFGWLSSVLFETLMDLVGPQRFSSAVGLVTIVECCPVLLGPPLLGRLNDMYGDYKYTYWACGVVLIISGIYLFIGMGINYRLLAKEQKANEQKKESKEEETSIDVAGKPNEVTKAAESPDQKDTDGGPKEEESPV

[7] = biological target: T2, Sodium/hydrogen exchanger 1; remark: listed apart in the source
Carbonic anhydrase 9 [8] = biological target: T5, Carbonic anhydrase 9 (Homo sapiens, UniProt Q16790)
[9] = biological target: T4, Monocarboxylate transporter 1; remark: listed apart in the source
[10] = biological target: T6, Monocarboxylate transporter 1 (Rattus norvegicus, UniProt P53987)
T6 sequence (P53987 whole entry): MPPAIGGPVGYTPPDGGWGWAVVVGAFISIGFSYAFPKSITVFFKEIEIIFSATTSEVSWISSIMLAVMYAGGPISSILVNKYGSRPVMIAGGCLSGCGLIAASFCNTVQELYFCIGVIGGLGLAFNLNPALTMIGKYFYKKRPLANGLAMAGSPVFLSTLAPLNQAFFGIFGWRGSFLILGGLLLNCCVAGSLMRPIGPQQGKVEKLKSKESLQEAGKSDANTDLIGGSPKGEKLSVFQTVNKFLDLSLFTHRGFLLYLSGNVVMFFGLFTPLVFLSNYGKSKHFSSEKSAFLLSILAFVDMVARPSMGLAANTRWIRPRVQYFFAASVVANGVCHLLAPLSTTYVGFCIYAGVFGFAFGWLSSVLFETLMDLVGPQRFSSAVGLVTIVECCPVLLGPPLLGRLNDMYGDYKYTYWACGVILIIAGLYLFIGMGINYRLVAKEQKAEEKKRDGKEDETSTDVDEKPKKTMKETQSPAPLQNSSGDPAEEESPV

Carbonic anhydrase 2 [11] = biological target: T1, Carbonic anhydrase 2; remark: listed apart in the source
[12] = biological target: T4, Monocarboxylate transporter 1; remark: listed apart in the source
MCF7 [13] = assay: cells; settings: Homo sapiens, MCF7, 96 h
Carbonic anhydrase 9 [14] = biological target: T5, Carbonic anhydrase 9; remark: listed apart in the source
[15] = biological target: T3, Monocarboxylate transporter 4; remark: listed apart in the source
[16] = biological target: T4, Monocarboxylate transporter 1; remark: listed apart in the source
[17] = biological target: T4, Monocarboxylate transporter 1; remark: listed apart in the source
Carbonic anhydrase 9 [18] = biological target: T5, Carbonic anhydrase 9; remark: listed apart in the source
MCF7 [19] = assay: cells; settings: Homo sapiens
HepG2 = assay: cells; settings: Homo sapiens
A549 = assay: cells; settings: Homo sapiens
[20] = biological target: T4, Monocarboxylate transporter 1; remark: listed apart in the source
[21] = biological target: T3, Monocarboxylate transporter 4; remark: listed apart in the source

T2 sequence (P19634 whole entry): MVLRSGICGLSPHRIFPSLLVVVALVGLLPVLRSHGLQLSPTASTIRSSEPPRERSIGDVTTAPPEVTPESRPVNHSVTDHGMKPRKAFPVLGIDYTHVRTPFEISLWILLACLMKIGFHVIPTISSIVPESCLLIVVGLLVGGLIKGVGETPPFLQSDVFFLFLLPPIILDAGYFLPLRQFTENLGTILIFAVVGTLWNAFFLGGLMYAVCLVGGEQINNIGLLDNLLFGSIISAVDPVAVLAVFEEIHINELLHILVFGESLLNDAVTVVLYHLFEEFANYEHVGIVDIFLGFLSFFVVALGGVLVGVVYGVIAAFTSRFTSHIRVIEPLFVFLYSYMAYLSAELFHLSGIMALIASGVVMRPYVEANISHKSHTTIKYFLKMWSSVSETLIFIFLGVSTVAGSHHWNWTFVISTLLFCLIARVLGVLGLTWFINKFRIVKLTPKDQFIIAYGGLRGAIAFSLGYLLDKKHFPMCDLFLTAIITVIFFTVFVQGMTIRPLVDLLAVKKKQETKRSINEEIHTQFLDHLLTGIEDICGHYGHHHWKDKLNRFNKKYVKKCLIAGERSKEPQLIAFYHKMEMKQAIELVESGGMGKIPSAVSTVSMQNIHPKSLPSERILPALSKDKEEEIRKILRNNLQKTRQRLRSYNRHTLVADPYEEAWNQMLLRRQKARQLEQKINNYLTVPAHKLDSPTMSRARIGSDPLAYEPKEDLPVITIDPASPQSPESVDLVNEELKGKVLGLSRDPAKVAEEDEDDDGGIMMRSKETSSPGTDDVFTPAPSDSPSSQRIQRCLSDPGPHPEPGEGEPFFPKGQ

CC(C)c1cc(=O)c2c(OCCCO)cc(OCc3cccc4ccccc34)cc2o1
EC50 (Raji): ≤ 100 nM

O=C(Oc1ccc2c(-c3ccccc3)cc(=O)oc2c1)c1ccccc1
Ki (Carbonic anhydrase 2 [1]): > 10000 nM

Cc1ccc(-c2cc(C)c(C(=O)N=C(N)N)cc2S(C)(=O)=O)cc1
IC50 [2]: 25 nM

C=CCN1CCN(Cc2c(O)ccc3c(C)cc(=O)oc23)CC1
Ki (Carbonic anhydrase 2 [3]): > 10000 nM

NC(N)=NC(=O)c1ccc2c(Br)cccc2c1
IC50 [4]: 10 nM

CC(C)c1cc(=O)c2c(OCc3ccccc3CO)cc(OCc3ncccc3C(F)(F)F)cc2o1
EC50 (Raji): ≤ 100 nM

COc1ccc(CN2CCN(CCOc3ccc(C(=O)NC(=N)N)cc3NC(=O)c3sccc3C)CC2)c(OC)c1OC
IC50 [4]: 68 nM

CC(C)c1ccc(C(=O)NC(=N)N)cc1S(C)(=O)=O [CARIPORIDE]
IC50 [2]: 800 nM and 200 nM

Cc1cc(-n2cccc2)c(S(C)(=O)=O)cc1C(=O)NC(=N)N [ENIPORIDE]
IC50 [2]: 80 nM

CCCCCOc1ccc(C(=O)CN2CCN(Cc3ccc(OC)c(OC)c3OC)CC2)cc1C(=O)N=C(N)N
IC50 [4]: 108 nM

CCN(c1nc(N)c(C(=O)NC(=N)N)nc1Cl)C(C)C [5-(N-ETHYL-N-ISOPROPYL)AMILORIDE]
IC50 [2]: 500 nM

CC(C)c1c(C(=O)Nc2ccccc2)c(-c2ccccc2)c(-c2ccc(F)cc2)n1CC[C@@H](O)C[C@@H](O)CC(=O)O [ATORVASTATIN CALCIUM]
IC50 [5]: ~138000 nM
IC50 [6]: > 210000 nM

CC(C)CN(C)c1nc(N)c(C(=O)N=C(N)N)nc1Cl [5-(N-METHYL-N-ISOBUTYL)AMILORIDE]
IC50 [7]: 174 nM

NS(=O)(=O)c1ccc(CN/C=C/C(=O)/C=C/c2cc3ccccc3oc2=O)cc1
Ki (Carbonic anhydrase 2 [3]): 44 nM
Ki (Carbonic anhydrase 9 [8]): 8.9 nM

O=c1cc(-c2ccc(O)c(O)c2)oc2cc(O)cc(O)c12 [LUTEOLIN]
IC50 [9]: 410 nM

COc1ccc(CN2CCN(CCOc3ccc(C(=O)N=C(N)N)cc3[N+](=O)[O-])CC2)c(OC)c1OC
IC50 [4]: 104 nM

Cc1cc(S(C)(=O)=O)c(S(C)(=O)=O)cc1C(=O)NC(=N)N [RIMEPORIDE]
IC50 [2]: 113 nM

CC(C)N1C(=O)C(C)(C)Oc2ccc(C(=O)N=C(N)N)cc21
IC50 [4]: 120 nM

Cc1nc(C(=O)N=C(N)N)c(N)nc1N1CCCOCC1
IC50 [7]: 85 nM

O=c1c(O)c(-c2ccc(O)cc2O)oc2cc(O)cc(O)c12 [MORIN]
IC50 [9]: 6210 nM

CCN(CC)c1ccc(/C=C(\C#N)C(=O)O)cc1
IC50 [10]: 66 nM

N=C(N)NC(=O)c1nc(Cl)c(N2CCCCCC2)nc1N [N,N-HEXAMETHYLENEAMILORIDE]
IC50 [2]: 3300 nM

CC(=O)Nc1cc([N+](=O)[O-])c(Cl)cc1C(=O)N=C(N)N
IC50 [2]: 3600 nM

NS(=O)(=O)c1ccc(NCC(=O)N/N=C2\C(=O)N(Cc3ccccc3)c3ccccc32)cc1
Ki (Carbonic anhydrase 2 [11]): 204 nM

NC(N)=NC(=O)c1nc(Cl)c(N)cc1N
IC50 [2]: 2300 nM

CN(Cc1ccccc1)c1ccc2cc(C(=O)O)c(=O)oc2c1
IC50 [12]: 59 nM

C=C(C)[C@@H]1CC[C@]2(COS(N)(=O)=O)CC[C@]3(C)[C@H](CC[C@@H]4[C@@]5(C)CC[C@H](OS(N)(=O)=O)C(C)(C)[C@@H]5CC[C@]43C)[C@@H]12
IC50 (MCF7 [13]): 10400 nM

NC(N)=NC(=O)c1cc(Cl)c(N)nc1N
IC50 [2]: 1300 nM

Cc1cc(=O)oc2cc(OCCCCCNc3nc4cc(-c5ccccc5)ccc4o3)ccc12
Ki (Carbonic anhydrase 2 [1]): > 10000 nM
Ki (Carbonic anhydrase 9 [14]): 32.2 nM

CC(C)N1C(=O)C(C)(C)Oc2cc(C(=O)N=C(N)N)ccc21
IC50 [4]: 200 nM

Cc1nc(-c2cc3ccccc3oc2=O)ccc1C(=O)/C=C/c1ccccc1
Ki (Carbonic anhydrase 2 [1]): > 100000 nM

N=C(N)NC(=O)[C@H]1C[C@@H]1c1ccccc1
IC50 [4]: 500 nM

N#Cc1cc2ccc(O)cc2oc1=O
Ki (Carbonic anhydrase 2 [1]): > 200000 nM

CS(=O)(=O)c1cc(C(=O)N=C(N)N)ccc1N1CCCCC1
IC50 [2]: 100 nM and 800 nM

CC[C@](C)(OCc1cc(-c2cccc(OC3CC3)c2)n(-c2ccccc2N2CCC2)n1)C(=O)O
IC50 [15]: 0.36 nM
IC50 [16]: 64000 nM

CC(C(=O)NCCOc1ccc2oc(=O)ccc2c1)c1ccc(-c2ccccc2)c(F)c1 (stereo unspecified)
Ki (Carbonic anhydrase 2 [3]): > 10000 nM

N#C/C(=C\c1c[nH]c2ccccc12)C(=O)O
IC50 [10]: > 1000 nM

CC(C)(OCc1nn(Cc2ccccc2)c2ccccc12)C(=O)O [BINDARIT]
Ki [17]: > 500000 nM

Cc1c[nH]c(=O)n(CC(=O)N=C(N)N)c1=O
IC50 [4]: 155 nM

CC(C)c1cc(=O)c2c(OCc3ccccc3CO)cc(OCc3ccnc4ccccc34)cc2o1
EC50 (Raji): ≤ 100 nM

Cc1cccc2c1cc(C(=O)N=C(N)N)n2C
IC50 [4]: 100 nM

Cc1cc(C(C)C)c(S(C)(=O)=O)cc1C(=O)N=C(N)N
IC50 [2]: 2 nM

N#C/C(=C\c1cn(-c2ccccc2C(=O)O)c2ccccc12)C(=O)O
IC50 [10]: > 1000 nM

C=C(C)[C@@H]1CC[C@]2(COS(N)(=O)=O)CC[C@]3(C)[C@H](CC[C@@H]4[C@@]5(C)CC[C@H](OC(=O)NCC)C(C)(C)[C@@H]5CC[C@]43C)[C@@H]12
Ki (Carbonic anhydrase 9 [18]): 4.46 nM
IC50 (MCF7 [13]): 10500 nM

O=C(CCc1ccc(O)cc1)c1c(O)cc(O)cc1O [PHLORETIN]
IC50 [9]: 2570 nM

Cc1nc2c(cc1C(=O)N=C(N)N)CCCCC2
IC50 [4]: 17 nM

NC(N)=NC(=O)c1cc(Cl)c(N)cc1N
IC50 [2]: 16000 nM

Nc1nn(C(=O)C23CC4CC(CC(C4)C2)C3)c(N)c1/N=N/c1ccccc1
Ki (Carbonic anhydrase 2 [3]): 85.7 nM
IC50 (MCF7 [19]): 4680 nM
IC50 (HepG2): 2700 nM
IC50 (A549): 1550 nM

Cn1c(=O)n(Cc2nnc(N)[nH]2)c(=O)c2ccccc21
IC50 [4]: 5800 nM

O=C(Nc1ccccc1C(=O)O)c1cc(S(=O)(=O)c2ccccc2)ccc1Cl
IC50 [20]: 85 nM
IC50 [21]: > 50000 nM

CCOC(=O)N1CCC(=C2c3ccc(Cl)cc3CCc3cccnc32)CC1 [LORATADINE]
IC50 [5]: > 300000 nM
IC50 [6]: ~100000 nM

O=c1ccc2cc(-n3cc(CNc4ccc(Br)cc4)nn3)ccc2o1
Ki (Carbonic anhydrase 2 [1]): > 50000 nM

CC(C)(C)[Si](CCOc1ccc(/C=C(\C#N)C(=O)O)cc1)(c1ccccc1)c1ccccc1
IC50 [10]: 97 nM

Cc1cccc(N2C(=O)CSC2c2cn(-c3ccccc3)nc2-c2cc3ccccc3oc2=O)c1 (stereo unspecified)
Ki (Carbonic anhydrase 2 [3]): > 10000 nM
Ki (Carbonic anhydrase 9 [8]): 61.5 nM

NC(N)=NC(=O)c1cc2cccc3c2n1C(=O)CCCC3
IC50 [4]: 6 nM

COc1ccc(CSc2nnc(COc3ccc4c(C)cc(=O)oc4c3)o2)cc1
Ki (Carbonic anhydrase 2 [1]): > 10000 nM

O=C(CN1C(=O)CSC1=O)c1cc2ccccc2oc1=O
Ki (Carbonic anhydrase 2 [1]): > 100000 nM

Cn1c(C(=O)N=C(N)N)cc2ccccc21
IC50 [4]: 1000 nM

CC(=O)C(C)/C(C)=N/NC(=O)C12CC3CC(CC(C3)C1)C2 (stereo unspecified)
Ki (Carbonic anhydrase 2 [3]): 256 nM
IC50 (MCF7 [19]): 8350 nM
IC50 (HepG2): 7820 nM
IC50 (A549): 4390 nM

CC(=O)c1ccc(-c2cc3ccccc3oc2=O)nc1C
Ki (Carbonic anhydrase 2 [1]): > 100000 nM
Ki (Carbonic anhydrase 9 [14]): 625 nM

COc1ccc(CN2CCN(Cc3ccc(C(=O)N=C(N)N)cc3NC(=O)c3ccc(C(F)(F)F)cc3)CC2)c(OC)c1OC
IC50 [4]: 3530 nM

From ChEMBL document CHEMBL5512616, “pH regulators and their inhibitors in tumor microenvironment” (Eur J Med Chem, 2024)
